In patent publication US7855297B2, “Amide derivatives and medicinal use thereof” (Mitsubishi Tanabe Pharma Corporation, priority 2000, dated 2010) one finds IC50 data, which are given here for 1 molecule.

This assay concerns the target T1, C5a receptor (Homo sapiens, UniProt P21730).
T1 construct: U-937 cell was stimulated with 1 mM dibutyryl cyclic AMP (dcAMP, SIGMA) for 2 days to express the C5a receptor; endogenous in cells; host or cells: U-937 cells (human histiocytic lymphoma) differentiated with 1 mM dibutyryl cAMP for 2 days; whole cells, stored frozen and thawed before use
T1 sequence (P21730 1-350): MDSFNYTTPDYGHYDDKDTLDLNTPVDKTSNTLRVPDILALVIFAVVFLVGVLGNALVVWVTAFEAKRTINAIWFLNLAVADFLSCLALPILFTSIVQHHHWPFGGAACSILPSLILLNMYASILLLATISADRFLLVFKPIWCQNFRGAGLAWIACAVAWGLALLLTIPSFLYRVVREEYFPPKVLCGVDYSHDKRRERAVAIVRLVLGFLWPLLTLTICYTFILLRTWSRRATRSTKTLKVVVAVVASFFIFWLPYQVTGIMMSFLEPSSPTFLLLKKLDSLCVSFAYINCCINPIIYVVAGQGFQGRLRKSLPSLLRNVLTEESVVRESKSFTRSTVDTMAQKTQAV
Briefly: C5a receptor binding assay ([125I]-human C5a, dcAMP-U937 cells). Particulars: [125I]-C5a 200 pM, 4° C., 2 hr, read-out: IC50 value, concentration at which binding of [125I]-human C5a is inhibited by 50%. Here is the method: The C5a receptor binding inhibitory action of C5a and the test compound was evaluated by a receptor binding assay comprising reacting human cell line U-937 (human histiocytic lymphoma line), which expresses the C5a receptor, with [^125I]-human C5a (Amersham Pharmacia Biotech) in a MultiScreen (MILLIPORE). First, U-937 cell was stimulated with 1 mM dibutyryl cyclic AMP (dcAMP, SIGMA) for 2 days to express the C5a receptor (dcAMP-U937 cell), and suspended in a binding buffer [50 mM HEPES, 1 mM CaCl2, 5 mM MgCl2, 0.5% bovine albumin (BSA, SIGMA), 0.02% NaN3 (pH 7.2)] and stored at −80° C. […] After drying the MultiScreen, the radioactivity on the filter was measured using a gamma counter.
The rate (% inhibition) of inhibition of C5a binding by the test compound was calculated by the following formula using the count value obtained without addition of the test compound as Total, the count value obtained with addition of non-labeled C5a as Non, and the count value obtained with addition of the test compound as Test. % Inhibition=100−[(Test-Non)/(Total-Non)]×100 […]

The structures appear in SMILES notation.

Turning to `CC(C)c1ccc(N(Cc2ccc(N(C)C)cc2)C(=O)C2CCCc3ccccc32)cc1` (stereo not shown) [Example 4, N-[(4-dimethylaminophenyl)methyl]-N-(4-isopropylphenyl)-1,2,3,4-tetrahydronaphthalene-1-carboxamide], the IC50 amounted to 104 nM.
